US20240042051A1, “MCL-1 INHIBITOR ANTIBODY-DRUG CONJUGATES AND METHODS OF USE” (Novartis AG, priority 2020, published 2024)
pIC50: −log10 of the molar value.

Assays:
[1] = test system: KMS27 xenografts; assay: KMS27 multiple myeloma xenograft, tumor growth inhibition and delay; format: in vivo, NSG mice; conditions: 50 mg/kg QD3, PO, single agent
Procedure: The in vivo therapeutic effect of two CD48-targeting MCL-1 ADCs formulated in Phosphate-Buffered Saline (PBS) was determined in KMS27 multiple myeloma model after intravenous (IV) administration.
KMS27 cells, obtained from JCRB, were cultured in RPMI supplemented with 10% FBS. Cells were resuspended in 50% matrigel (BD Biosciences) and 0.1 ml containing 10×10^6 cells were subcutaneously inoculated into the right flank of female NSG mice, provided by Jax. When tumors reached the appropriate volume, mice were randomized, 6 animals per group, using Easy stat software. Anti-CD48 NY920_CysmAb Fc silent, anti-CD48 NY938_CysmAb Fc silent, anti-CD48 NY920_CysmAb Fc silent_L42-P1 and anti-CD48 NY938_CysmAb Fc silent_L42-P1 (2.5 and/or 5 mg/kg) were injected once IV in PBS in combination with ABT-199 (50 mg/kg, PO for 3 consecutive days=QD3 in PEG/ethanol/phosal). Mice body weight was monitored three times a week and tumor size measured using electronic calipers. Tumor volume was estimated by measuring the minimum and maximum tumor diameters using the formula: (minimum diameter)^2 (maximum diameter)/2. […]
With DTV (Delta Tumor Volume) at Dx, calculated being TV at Dx-TV at Randomization. Tumor Growth Delay (TGD) was calculated as the number of days required for the median tumor volume in each group to reach back the starting tumor volume (at randomization). […]

[2] = test system: KMS-21-BM xenografts; assay: KMS-21-BM multiple myeloma xenograft, tumor growth inhibition and delay; format: in vivo, NSG mice; conditions: 0.5 mg/kg QD, single agent
Procedure: The in vivo therapeutic effect of a CD48-targeting MCL-1 ADC formulated in Phosphate-Buffered Saline (PBS) was determined in KMS-21-BM multiple myeloma model after intravenous (IV) administration.
KMS-21-BM cells, obtained from JCRB, were cultured in RPMI supplemented with 10% FBS. Cells were resuspended in 100% matrigel (BD Biosciences) and 0.1 ml containing 10×10^6 cells were subcutaneously inoculated into the right flank of female NSG mice, provided by Jax. When tumors reached the appropriate volume, mice were randomized, 6 animals per group, using Easy stat software. IgG1-Linker-Payload Fc WT, anti-CD48 NY920_CysmAb Fc WT, anti-CD48 NY920_CysmAb Fc WT_L42-P1 (10 and/or 30 mg/kg) and Bortezomib (0.5 mg/kg) were injected, alone or in combination, once IV in PBS and NaCl 0.9%, respectively. Mice body weight was monitored three times a week and tumor size measured using electronic calipers. Tumor volume was estimated by measuring the minimum and maximum tumor diameters using the formula: (minimum diameter)^2 (maximum diameter)/2. Tumor growth inhibition on day 21 was calculated using the formula: […]
With DTV (Delta Tumor Volume) at Dx, calculated being TV at Dx−TV at Randomization. Tumor Growth Delay (TGD) was calculated as the number of days required for the median tumor volume in each group to reach 500 mm^3. […]

[3] = test system: KMS-21-BM; assay: CellTiter-Glo proliferation assay (Example 7); format: cell-based; conditions: 5 days
Procedure: (§1) The CD48 MCL-1 antibody drug conjugates were tested against three endogenous cancer cell lines: NCI-H929 (ATCC No. CRL-9068 cultured in RPMI-1640+10% FBS+0.05 mM 2-mercaptoethanol), KMS-21 BM (JCRB No. JCRB1185 cultured in RPMI-1640+10% FBS) and KMS-27 (JCRB No. JCRB1188 cultured in RPMI-1640+10% FBS).
(§2) The ability of the MCL-1 antibody drug conjugates to inhibit cell proliferation and survival was assessed using the Promega CellTiter-Glo® proliferation assay. ADCs were generated generally as described in Example 6. Cell lines were cultured in media that is optimal for their growth at 5% CO2, 37° C. in a tissue culture incubator. Prior to seeding for the proliferation assay, the cells were split at least 2 days before the assay to ensure optimal growth density. On the day of seeding, cell viability and cell density were determined using a cell counter (Vi-Cell XR Cell Viability Analyzer, Beckman Coulter). Cells with higher than 85% viability were seeded in white clear bottom 384-well TC treated plates (Corning cat. #3765). Cells were seeded at a density of 1,000 cells per well in 45 μL of standard growth media. Plates were incubated at 5% CO2, 37° C. overnight in a tissue culture incubator. The next day, free MCL-1 payload (P1), targeting MCL-1 ADCs, and non-targeting isotype (IgG) ADCs were prepared at 10× in standard growth media. The prepared MCL-1 payload (P1) treatment was then added to the cells resulting in final concentrations of 0.005-100 nM and a final volume of 50 uL per well. The prepared CD48 targeting and isotype matched non-targeting control ADC treatments were added to the cells resulting in final concentrations of 0.015-300 nM and a final volume of 50 uL per well. Each drug concentration was tested in quadruplets. Plates were incubated at 5% CO2, 37° C. for 5 days in a tissue culture incubator, after which cell viability was assessed through the addition of 25 μL of CellTiter Glo® (Promega, cat #G7573), a reagent which lyses cells and measures total adenosine triphosphate (ATP) content. Plates were incubated at room temperature for 10 minutes to stabilize luminescent signals prior to reading using a luminescence reader (EnVision Multilabel Plate Reader, PerkinElmer). To evaluate the effect of the drug treatments, luminescent counts from wells containing untreated cells (100% viability) were used to normalize treated samples. A variable slope model was applied to fit a nonlinear regression curve to the data in GraphPad PRISM version 7.02 software. IC50 and Amax values were extrapolated from the resultant curves.

[4] = test system: KMS-27; assay: CellTiter-Glo proliferation assay (Example 7); format: cell-based; conditions: 5 days
Procedure: as §1, §2

[5] = test system: NCI-H929; assay: CellTiter-Glo proliferation assay (Example 7); format: cell-based; conditions: 5 days
Procedure: as §1, §2

[6] = test system: NCI-H929, KMS-21 BM and KMS-27 cancer cell lines; assay: CellTiter-Glo proliferation assay (Example 7), summary over cell lines; format: cell-based; conditions: read-out: IC50 values, range over representative cancer cell lines
Procedure: as §1
The ability of the MCL-1 antibody drug conjugates to inhibit cell proliferation and survival was assessed using the Promega CellTiter-Glo® proliferation assay. ADCs were generated generally as described in Example 6. Cell lines were cultured in media that is optimal for their growth at 5% CO2, 37° C. in a tissue culture incubator. Prior to seeding for the proliferation assay, the cells were split at least 2 days before the assay to ensure optimal growth density. On the day of seeding, cell viability and cell density were determined using a cell counter (Vi-Cell XR Cell Viability Analyzer, Beckman Coulter). […] Plates were incubated at 5% CO2, 37° C. for 5 days in a tissue culture incubator, after which cell viability was assessed through the addition of 25 μL of CellTiter Glo® (Promega, cat #G7573), a reagent which lyses cells and measures total adenosine triphosphate (ATP) content. Plates were incubated at room temperature for 10 minutes to stabilize luminescent signals prior to reading using a luminescence reader (EnVision Multilabel Plate Reader, PerkinElmer). […]

In the case of `CC1(C)CCC(CN2CCN(c3ccc(C(=O)NS(=O)(=O)c4ccc(NCC5CCOCC5)c([N+](=O)[O-])c4)c(Oc4cnc5[nH]ccc5c4)c3)CC2)=C(c2ccc(Cl)cc2)C1` [ABT-199, venetoclax], the “% TGI (d4)” value [1] was 120.82% and the TGD ([1]; to reach back starting tumor volume) was 6.27 days.

With `CC(C)C[C@H](NC(=O)[C@H](Cc1ccccc1)NC(=O)c1cnccn1)B(O)O` [Bortezomib] the “% TGI (d21)” value ([2]; IV (once)) was 88.09% and the TGD ([2]; IV, median tumor volume to reach 500 mm^3) was 42.53 days.

`COc1ccccc1-c1nccc(COc2ccccc2C[C@@H](Oc2ncnc3sc(-c4ccc(F)cc4)c(-c4ccc(OCCN5CCN(C)CC5)c(Cl)c4C)c23)C(=O)O)n1` [P1, (2R)-2-[5-[3-chloro-2-methyl-4-[2-(4-methylpiperazin-1-yl)ethoxy]phenyl]-6-(4-fluorophenyl)thieno[2,3-d]pyrimidin-4-yl]oxy-3-[2-[[2-(2-methoxyphenyl)pyrimidin-4-yl]methoxy]phenyl]propanoic acid] was tested, and the pIC50 ([3]; 120 h) was 8.94, the “Amax (Span)” value [3] was 100.9 and the pIC50 ([4]; 120 h) was 7.95. The “Amax (Span)” value [4] was 99, the “Amax (Span)” value [5] was 110.3 and the pIC50 ([5]; Homo sapiens, 120 h) was 8.33. The pIC50 [6] was 7.95 to 8.94.
